Measurements: patent US20240384268A1, “Oligonucleotides” (Hudson Institute of Medical Research, priority 2021, published 2024)
In the oligonucleotide strings, read from the 5' end, every base follows the letter of its sugar. An asterisk marks phosphorothioate; unmarked linkages are phosphodiester. Other units and linkages are bracketed, terminal groups are in braces. A string of capitals states the bases alone. m = 2'-O-methyl

Tests used:
TLR8 [1] = biological target: T1, TLR8 (Homo sapiens, UniProt Q9NR97); assay: R848-driven IP-10 production in THP-1 cells (TLR8); format: cell-based; design: expressed in transfected cells; conditions: 3mer 2'OMe ASO at 1 uM; raw values, Ligand only = 355.752, NT = 134.831;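 also: IP-10 by ELISA in supernatant after 7 h R848 stimulation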
T1 sequence (Q9NR97 27-1041): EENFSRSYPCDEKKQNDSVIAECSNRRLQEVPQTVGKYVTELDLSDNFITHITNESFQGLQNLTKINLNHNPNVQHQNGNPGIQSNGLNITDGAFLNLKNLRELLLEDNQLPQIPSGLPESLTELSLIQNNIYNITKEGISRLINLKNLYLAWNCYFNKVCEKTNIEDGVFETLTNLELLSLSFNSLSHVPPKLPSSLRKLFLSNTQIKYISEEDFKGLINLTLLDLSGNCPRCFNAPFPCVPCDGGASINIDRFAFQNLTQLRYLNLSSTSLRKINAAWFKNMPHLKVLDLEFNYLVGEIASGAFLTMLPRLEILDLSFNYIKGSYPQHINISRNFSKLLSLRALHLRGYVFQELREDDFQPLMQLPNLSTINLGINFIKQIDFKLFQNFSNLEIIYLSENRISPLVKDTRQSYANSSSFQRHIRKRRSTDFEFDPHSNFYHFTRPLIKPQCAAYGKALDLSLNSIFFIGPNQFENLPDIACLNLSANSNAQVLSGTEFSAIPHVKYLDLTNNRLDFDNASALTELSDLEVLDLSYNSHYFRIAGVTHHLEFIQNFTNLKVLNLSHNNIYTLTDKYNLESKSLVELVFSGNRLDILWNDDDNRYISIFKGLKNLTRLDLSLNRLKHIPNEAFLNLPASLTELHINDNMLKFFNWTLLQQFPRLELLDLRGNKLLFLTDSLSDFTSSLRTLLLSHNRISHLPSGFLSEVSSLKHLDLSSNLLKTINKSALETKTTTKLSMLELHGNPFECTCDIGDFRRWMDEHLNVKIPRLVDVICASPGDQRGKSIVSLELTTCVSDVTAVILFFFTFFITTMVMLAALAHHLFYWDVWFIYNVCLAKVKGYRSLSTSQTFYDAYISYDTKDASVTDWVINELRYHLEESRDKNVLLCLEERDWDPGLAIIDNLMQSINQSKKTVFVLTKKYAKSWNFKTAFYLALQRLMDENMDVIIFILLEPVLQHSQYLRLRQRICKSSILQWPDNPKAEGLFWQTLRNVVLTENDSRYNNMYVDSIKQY

TLR8 [2] = biological target: T1, TLR8; assay: HEK-TLR8 NF-κB-luciferase reporter, R848 or Motolimod stimulation (potentiation or inhibition); format: cell-based; design: expressed in transfected cells; host or cells: 293XLhTLR8 (HEK293); conditions: HEK-TLR8; for TLR8 HEK 5 uM: 3mer 2'OMe ASO at 5 uM, value relative to Ligand only = 1.000, NT = 0.000

Substance	TLR8 1 uM (TLR8 [1])	TLR8 HEK 5 uM (TLR8 [2])	effect of 3-mer 2′OMe PS oligos on TLR8 sensing in HEK-TLR8 (in words) (TLR8 [2]; 5 μM naked 3-mer, Motolimod)
dC*dA*dC (CAC; listed as RNA, chemistry not fully specified)	344.415	0.809	–
UUA (mU*mU*mA)	350.207	1.060	–
CGU (mC*mG*mU)	346.350	1.327	–
CCU (mC*mC*mU)	332.524	0.613	–
UAA (mU*mA*mA)	224.188	0.907	–
mUmCmG (antisense mU*mC*mG) [660-3b]	746.272	2.839	potentiated the sensing of R848
UCU (mU*mC*mU)	371.961	1.414	–
dC*dG*dA (CGA; listed as DNA, chemistry not fully specified)	504.099	1.512	–
UAC (mU*mA*mC)	254.486	0.813	–
dC*dC*dC (CCC; listed as DNA, chemistry not fully specified)	181.399	0.756	–
mUmGmA (mU*mG*mA) [UGA, 3-mer 2′OMe PS oligo]	267.234	1.331	–
